Source: patent US11339417B2, “Amplifier system and controls for dielectrophoretic tracking in microfluidic devices” (University of Virginia Patent Foundation, priority 2014, dated 2022)
Values joined by “and” are separate entries in the source; they are usually repeats but may differ in a detail not shown here. Equal entries are not always repeated.

Key:
[1] = test system: C. difficile VPI10463 (high-toxigenic, HTCD); test: Dielectrophoretic (DEP) characterization of C. difficile HTCD strain after vancomycin treatment; format: cell-based, Clostridium difficile
Protocol: Bacteria strains preparation. II three C. difficile strains were purchased from ATCC. The bacteria were cultured in brain heart infusion (BHI) broth (BD BBL Brain Heart Infusion) at 37° C. overnight under anaerobic condition before further antibiotic treatment or dielectrophoretic experiments. 250 μL of the overnight cultured bacteria suspension and 750 μL of the BHI with vancomycin (Novaplus) or without vancomycin for the control groups were mixed in Eppendorf tubes and incubated at 37° C. for 4 hours or 24 hours. The vancomycin concentration for VPI10463 (high-toxigenic, HTCD) was 2 mg/mL and 1 mg/mL for ATCC630 (low-toxigenic, LTCD) and VPI11186 (non-toxigenic, NTCD). Prior to the dielectrophoresis experiments, the BHI broth was replaced with 8.8% sucrose water and re-adjusted with BHI broth to optimize the medium conductivity 105±5% mS/m for enabling DEP-based distinction of C. difficile strains from mixed samples. All three strains were confirmed to be viable within this altered BHI media over the timeframe of the DEP experiments, as per the colony forming unit (CFU) assay.
Dielectrophoretic characterization of C. difficile. The experimental setup has been described in our prior work. Briefly, Standard PDMS (Poly-di-methyl-siloxane) micro-molding methods were used to micro-fabricate channels with sharp lateral constrictions (1000 μm to 15 μm). […] The trajectory of the unlabeled C. difficile of each strain type was observed under this field, as high frame per second movies to quantify the DEP velocity. For experiments within mixed C. difficile samples, the trapped microbials were released and analyzed with the immunoassay to confirm toxigenicity. […]
(§1) FIGS. 2a and 2b show the electrode-less device with external electrodes (1 cm apart) to initiate localized microbial trapping in the constriction region. […] In this manner, as per prior work^33, the translational velocity under the DEP trapping force is measured for ˜20 individual microbial cells to quantify the DEP spectra. […]

[2] = test system: C. difficile ATCC630 (low-toxigenic, LTCD); test: Dielectrophoretic (DEP) characterization of C. difficile LTCD strain after vancomycin treatment; format: cell-based, Clostridium difficile; settings: vancomycin 1 mg/mL, untreated 500 kHz
Protocol: (§2) Bacteria strains preparation. II three C. difficile strains were purchased from ATCC. The bacteria were cultured in brain heart infusion (BHI) broth (BD BBL Brain Heart Infusion) at 37° C. overnight under anaerobic condition before further antibiotic treatment or dielectrophoretic experiments. 250 μL of the overnight cultured bacteria suspension and 750 μL of the BHI with vancomycin (Novaplus) or without vancomycin for the control groups were mixed in Eppendorf tubes and incubated at 37° C. for 4 hours or 24 hours. The vancomycin concentration for VPI10463 (high-toxigenic, HTCD) was 2 mg/mL and 1 mg/mL for ATCC630 (low-toxigenic, LTCD) and VPI11186 (non-toxigenic, NTCD). […]
(§3) Dielectrophoretic characterization of C. difficile. […] The trajectory of the unlabeled C. difficile of each strain type was observed under this field, as high frame per second movies to quantify the DEP velocity. For experiments within mixed C. difficile samples, the trapped microbials were released and analyzed with the immunoassay to confirm toxigenicity. […]
as §1

[3] = test system: C. difficile VPI11186 (non-toxigenic, NTCD); test: Dielectrophoretic (DEP) characterization of C. difficile NTCD strain after vancomycin treatment; format: cell-based, Clostridium difficile
Protocol: as §2, §3, §1

[4] = test system: C. difficile VPI10463 (high-toxigenic, HTCD); test: Toxicity enzyme-linked immunosorbent assay, total toxin (A/B) production; format: cell-based, Clostridium difficile
Protocol: Toxicity enzyme-linked immunosorbent assay. Total toxin (A/B) production was measured using the C. difficile TOX A/B II kit (Tech-Lab) according to the manufacturer's instructions. Culture supernatants were collected at 0, 4 and 24 hours by centrifugation at 3500 rcf for 5 min and stored at −20° C. The supernatants of the VPI110463 strain were diluted 1 to 20, while the supernatants of the VPI11186 strain were undiluted. Each specimen was run in duplicate. Total toxin levels were determined by measuring A450 under a 96 well plate spectrophotometry. The A450 number at each time point (4 hours and 24 hours) of each strain at each condition was normalized to its 0 hour time point.
(§4) In order to evaluate the sensitivity of DEP methods versus the current state of the art, we benchmark the DEP velocity data for HTCD and NTCD C. difficile strains after various levels of antibiotic treatment versus conventional diagnostic measures for the loss of C. difficile functionality, such as toxin production and growth rate values. To enable the comparison of DEP data across the range of C. difficile strains, we choose a frequency of 1 MHz, since all strains show some level of pDEP before and after antibiotic treatment. For measurements of alteration in toxin production level and growth rate of C. difficile strains after antibiotic treatment, it is necessary to culture the microbial cells with the antibiotic over a period of 4-24 hours, to enable sufficient sensitivity for the measurements. […] Furthermore, the results after antibiotic treatment for a particular period of time are compared against their respective values on untreated microbials for the same period of culture time (this control value for each treatment time is indicated as “Un-0”, “Un-4” or “Un-24” in FIGS. 15c-15e).

[5] = test system: C. difficile VPI10463 (high-toxigenic, HTCD); test: Growth measurement (OD600), HTCD strain; format: cell-based, Clostridium difficile
Protocol: (§5) Growth measurement. 250 μL of the overnight cultured bacteria suspension and 750 μL of the BHI broth, with or without vancomycin were mixed in Eppendorf tubes. The optical density at a wavelength of 600 nm (OD600) of the mixed bacteria suspensions, measured by Spectrophotometry (Eppendorf Biophotometer) before incubation, was indexed as the “0 hour” time point. The OD600 number at later time points (4 and 24 hours) for respective strain at each condition was normalized to its 0 hour point.
as §4

[6] = test system: C. difficile VPI11186 (non-toxigenic, NTCD); test: Growth measurement (OD600), NTCD strain; format: cell-based, Clostridium difficile
Protocol: as §5, §4

[7] = test system: Cryptosporidium parvum oocysts; test: Excystation of oocysts after disinfection treatment; format: cell-based; settings: oocysts treated with 100 mg L^−1 for 4 hours; untreated 89.5%
Protocol: For treatment with silver nanoparticles (AgNPs), the animal infectivity experiment was done after the oocysts were treated with 100 mg L^−1 proteinate capped AgNPs (Argenol) (˜15 nm) for 4 hours.
After each disinfection treatment, the oocysts were treated with 10% bleach (Bleach-Rite) for 30 minutes in a micro-centrifuge tube at room temperature, followed by vortexing every 10 minutes. The suspension was incubated in a microfluidic chamber with a glass cover-slip for an hour, for real-time recording of the excystation; i.e. release of sporozoites from the oocyst. The excystation was examined by inverted microscopy using 63× oil immersion phase and DIC objectives. […] The percentage of the excystation was calculated as: (# of excysted oocytsl # of total oocyst)×100.^29 For mouse model infectivity studies,^12 all mice were malnourished for a period of 13 days before experiments. For every six mice fed with the oocysts for each treatment, three other mice were fed with untreated oocysts as positive control.

[8] = test system: Cryptosporidium parvum oocysts; test: Dielectrophoretic characterization of oocysts (DEP tracking, single shell model fit); format: cell-based; settings: 100 mg L^−1 for 4 hours
[9] = 4 hours of vancomycin treatment
[10] = 24 hours of vancomycin treatment

SMILES | DEP crossover frequency after vancomycin treatment ([1]; HTCD / hypervirulent TCD strain, vancomycin 2 mg/mL, untreated 300 kHz or 400 kHz) | DEP velocity after vancomycin treatment ([1]; HTCD, 1 MHz, 4 hours of vancomycin treatment, untreated 30.7 μm/s) [μm/s] | DEP behavior at 400 kHz of vancomycin treated cells ([1]; HTCD, 400 kHz, untreated HTCD shows pDEP) | DEP crossover frequency after vancomycin treatment [2] [kHz] | DEP crossover frequency after vancomycin treatment ([3]; NTCD strain, vancomycin 1 mg/mL, untreated 900 kHz) [kHz] | DEP velocity after vancomycin treatment ([3]; NTCD, 1 MHz, 4 hours of vancomycin treatment, untreated 16 μm/s) [μm/s] | Difference in toxin production level versus the control (Un-4) [4, 9] | Relative toxin production (normalized to 0 hour) [4, 9] [times] | Difference in toxin production level versus the control (Un-24) [4, 10] | Relative toxin production (normalized to 0 hour) [4, 10] | Growth rate reduction [5, 9] | Relative growth rate (OD600 normalized to 0 hour) [5, 9] [times] | Difference in growth rate versus the control (Un-24) [5, 10] | Relative growth rate (OD600 normalized to 0 hour) [5, 10] [times] | Difference in growth rate versus the untreated sample (Un-4) [6, 9] | Relative growth rate (OD600 normalized to 0 hour) [6, 9] [times] | Difference in growth rate versus the untreated sample (Un-24) [6, 10] | Relative growth rate (OD600 normalized to 0 hour) [6, 10] [times] | Excystation rate [7] | DEP response of treated versus untreated oocysts at 100 kHz and at 400 kHz [8]
CN[C@H](CC(C)C)C(=O)N[C@H]1C(=O)N[C@@H](CC(N)=O)C(=O)N[C@H]2C(=O)N[C@H]3C(=O)N[C@H](C(=O)N[C@H](C(=O)O)c4cc(O)cc(O)c4-c4cc3ccc4O)[C@H](O)c3ccc(c(Cl)c3)Oc3cc2cc(c3O[C@@H]2O[C@H](CO)[C@@H](O)[C@H](O)[C@H]2O[C@H]2C[C@](C)(N)[C@H](O)[C@H](C)O2)Oc2ccc(cc2Cl)[C@H]1O [vancomycin] | 600 kHz and 900 kHz | 7.6 | some residual level of nDEP and nDEP | 300 | 600 | ~7 | 0.55 | 1.05 | 7.5 | small reduction | minimal growth rate reduction | 1.51 | 2.2 | 1.61 | 0.74 | 1.1 | 3.3 | 1.05 |  | 
O=[N+]([O-])[O-].[Ag+] [AgNO3, silver nitrate] |  |  |  |  |  |  |  |  |  |  |  |  |  |  |  |  |  |  | 71.4% and 70% | not significantly altered
